Legend:
[1] = test system: mouse model of memory impairment; test: Y-shaped maze test in scopolamine mouse model of memory impairment; assay type: in vivo; conditions: ICR mice, scopolamine 3 mg/kg i.p., Y-shaped maze on day 7
Procedure: The memory-improving effect of araliadiol was confirmed by administering (orally by sonde) a composition containing arariadiol (a compound shown in Formula I) to a mouse model of memory impairment.
Experimental methods are described below. The following groups of ICR mice (male, 7 weeks old/purchased from SLC Japan) were established. The mice in each group, except for the untreated group, were treated with the composition orally administered by sonde and scopolamine administered intraperitoneally (i.p.). The composition contains a predetermined amount of araliadiol in distilled water. Scopolamine was administered at a dose of 3 mg per kg of mice to cause memory impairment in mice. […] For groups other than the untreated group, distilled water or the composition was administered daily from day 0 to day 6 (seven doses of the composition), with day 0 being the first day of administration of distilled water or the composition. On the 7th day, all groups of mice were tested in a Y-shaped maze test. Scopolamine was administered to all groups of mice except the untreated group 30 minutes before the start of the Y-shaped maze test. • Untreated group: 15 ICR mice that were treated with distilled water containing no araliadiol, but not with scopolamine. • Control group: 16 ICR mice were treated with distilled water containing no araliadiol and scopolamine. • Araliadiol 1 mg/kg group: 16 ICR mice were treated with a composition containing araliadiol (1 mg of araliadiol per 1 kg of mouse body weight per day: 1 mg/kg/day) and scopolamine. • Araliadiol […]: A group of 16 ICR mice that received a composition containing araliadiol (10 mg of araliadiol per kg of mouse body weight per day: 10 mg/kg/day) and a dose of SCOPE.
The Y-shaped maze device shown in FIG. 11 (made of gray acrylic: 40 cm long×10 cm wide×12 cm high) was used to conduct the Y-shaped maze test. In the Y-shaped maze test, mice were allowed to explore in the device, and the spontaneous alternations observed during the exploratory behavior were evaluated as short-term memory. The mice were placed at the tip of one of the three arms of the Y-shaped maze, allowed to explore freely in the maze for 8 minutes, and the arms they entered were recorded in order. The number of times for the mouse to enter each arm (total number of arm entries) and the number of combinations of consecutive entries into three different arms (number of alternation behaviors) were examined during the measurement period (8 minutes). The alternation behavior (%) was calculated from the following formula and used as an index of short-term memory.
Alternating behavior (%)=number of alternating actions/(total number of arm entries−2)×100

[2] = test system: human breast cancer cell line (MCF-7); conditions: MCF-7, Non-patent literature 1; cited from earlier work

With `C=C[C@H](O)C#CC#C[C@H](O)/C=C\CCCCC` [Araliadiol, 3(S),8(R)-pentadeca-1,9(Z)-diene-4,6-diyne-3,8-diol] the “Alternating behavior (%)” value ([1]; 1 mg/kg/day oral for 7 days) was 50.87%, the “Alternating behavior (%)” value ([1]; 1 mg/kg/day oral for 7 days, listed as araliadiol) was “increase in the rate of alternation behavior” and the “Alternating behavior (%)” value ([1]; 10 mg/kg/day oral for 7 days) was 53.18(*) %. For the same molecule, the “Alternating behavior (%)” value ([1]; 10 mg/kg/day oral for 7 days, listed as araliadiol) was “improvement in the rate of alternating behavior”, the cell cycle [2] was “arrest the cell cycle” and the proliferation [2] was “inhibit the proliferation”.
